Results reported in PubChem BioAssay AID270 (DTP/NCI, 2004).
Several values for one entry are separate records, joined by “and”; a condition that tells them apart may be missing. Identical values can stand only once. Inconclusive results are not listed.

System: BDF1 mice, s.c. Lewis lung carcinoma, T/C %
Test: NCI In Vivo Anticancer Drug Screen. Data for tumor model Lewis Lung Carcinoma (subcutaneous) in B6D2F1 (BDF1) mice
Protocol: The antitumor activity of compounds was measured in mice bearing transplantable tumors. Survival or tumor size were measured and the results are expressed as the measurement made in the treated group (T) divided by the measurement made in the vehicle treated control group (C). The tumor model used in this assay is Lewis Lung Carcinoma (subcutaneous) in B6D2F1 (BDF1) mice

O=C(O)c1ccc(-c2ccccc2)cc1
T/C (endpoint: mean tumor weight, dose: 60.0 mg/kg/injection, schedule: Q01DX011 (ip), vehicle: carboxymethylcellulose (CMC), higher = larger tumour): 61 % of control | T/C (endpoint: mean tumor weight, dose: 90.0 mg/kg/injection, schedule: Q01DX011 (ip), vehicle: carboxymethylcellulose (CMC), higher = larger tumour): 80 % of control | T/C (endpoint: mean tumor weight, dose: 135.0 mg/kg/injection, schedule: Q01DX011 (ip), vehicle: carboxymethylcellulose (CMC), higher = larger tumour): 65 % of control | T/C (endpoint: mean tumor weight, dose: 200.0 mg/kg/injection, schedule: Q01DX011 (ip), vehicle: carboxymethylcellulose (CMC), higher = larger tumour): 33 % of control and 42 % of control

CC1(C)CCC(NC(=O)N(CCF)N=O)CC1
T/C (endpoint: median survival time, dose: 6.0 mg/kg/injection, schedule: Q01DX009 (ip), vehicle: saline with Tween-80, higher = longer survival): 97 % of control | T/C (endpoint: median survival time, dose: 9.0 mg/kg/injection, schedule: Q01DX009 (ip), vehicle: saline with Tween-80, higher = longer survival): 113 % of control | T/C (endpoint: median survival time, dose: 20.0 mg/kg/injection, schedule: Q01DX009 (ip), vehicle: saline with Tween-80, higher = longer survival): 265 % of control | T/C (endpoint: median survival time, dose: 30.0 mg/kg/injection, schedule: Q01DX009 (ip), vehicle: saline with Tween-80, higher = longer survival): 236 % of control | T/C (endpoint: median survival time, dose: 50.0 mg/kg/injection, schedule: Q01DX009 (ip), vehicle: saline with Tween-80, higher = longer survival): 88 % of control

COc1cc(C(=O)OC2CC34CCNC35CC(OC5(OC)C2O)c2cc3c(cc24)OCO3)ccc1O (stereo not drawn)
T/C (endpoint: mean tumor weight, dose: 0.25 mg/kg/injection, schedule: Q01DX011 (ip), vehicle: carboxymethylcellulose (CMC), higher = larger tumour): 41 % of control | T/C (endpoint: mean tumor weight, dose: 0.5 mg/kg/injection, schedule: Q01DX011 (ip), vehicle: carboxymethylcellulose (CMC), higher = larger tumour): 50 % of control | T/C (endpoint: mean tumor weight, dose: 1.0 mg/kg/injection, schedule: Q01DX011 (ip), vehicle: carboxymethylcellulose (CMC), higher = larger tumour): 87 % of control

CCOC(=O)C1=NNC(=O)C1
T/C (endpoint: mean tumor weight, dose: 222.0 mg/kg/injection, schedule: Q01DX011 (ip), vehicle: other, higher = larger tumour): 119 % of control | T/C (endpoint: mean tumor weight, dose: 333.0 mg/kg/injection, schedule: Q01DX011 (ip), vehicle: other, higher = larger tumour): 118 % of control | T/C (endpoint: mean tumor weight, dose: 500.0 mg/kg/injection, schedule: Q01DX011 (ip), vehicle: other, higher = larger tumour): 75 % of control | T/C (endpoint: mean tumor weight, dose: 750.0 mg/kg/injection, schedule: Q01DX011 (ip), vehicle: other, higher = larger tumour): 108 % of control

CC1OC(Oc2c(-c3ccc(O)c(O)c3)oc3cc(O)cc(O)c3c2=O)C(O)C(O)C1O (stereo not drawn)
T/C (endpoint: mean tumor weight, dose: 62.5 mg/kg/injection, schedule: Q01DX011 (ip), vehicle: saline, higher = larger tumour): 92 % of control | T/C (endpoint: mean tumor weight, dose: 125.0 mg/kg/injection, schedule: Q01DX011 (ip), vehicle: saline, higher = larger tumour): 93 % of control | T/C (endpoint: mean tumor weight, dose: 250.0 mg/kg/injection, schedule: Q01DX011 (ip), vehicle: saline, higher = larger tumour): 99 % of control | T/C (endpoint: mean tumor weight, dose: 500.0 mg/kg/injection, schedule: Q01DX011 (ip), vehicle: saline, higher = larger tumour): 51 % of control

CCN(CC)CCN1C(=O)c2cccc3cccc(c23)C1=O
T/C (endpoint: mean tumor weight, dose: 48.0 mg/kg/injection, schedule: Q01DX011 (ip), vehicle: saline, higher = larger tumour): 111 % of control | T/C (endpoint: mean tumor weight, dose: 73.0 mg/kg/injection, schedule: Q01DX011 (ip), vehicle: saline, higher = larger tumour): 87 % of control | T/C (endpoint: mean tumor weight, dose: 110.0 mg/kg/injection, schedule: Q01DX011 (ip), vehicle: saline, higher = larger tumour): 69 % of control
